Bounds are passed on as bounds.

Data set [1] deals with Escherichia coli. Kind of data set: Antibacterial activity against ESBL-producing multidrug-resistant Escherichia coli clinical isolate 14-1 assessed as inhibition of bacterial growth incubated for 18 to 20 hrs by two fold serial dilution assay. As to conditions: time 18-20 hrs. The format is functional.
In data set [2] the test system is Escherichia coli. Kind of data set: Antibacterial activity against ESBL-producing multidrug-resistant Escherichia coli clinical isolate 14-2 assessed as inhibition of bacterial growth incubated for 18 to 20 hrs by two fold serial dilution assay. The format is functional. As to conditions: time 18-20 hrs.
For data set [3], the system named is Escherichia coli. Description: Antibacterial activity against ESBL-producing multidrug-resistant Escherichia coli clinical isolate 14-4 assessed as inhibition of bacterial growth incubated for 18 to 20 hrs by two fold serial dilution assay. The format is functional. As to conditions: time 18-20 hrs.
Data set [4] concerns Acinetobacter baumannii. Description: Antibacterial activity against OXA-23 producing multidrug-resistant Acinetobacter baumannii clinical isolate 15-1 assessed as inhibition of bacterial growth incubated for 18 to 20 hrs by two fold serial dilution assay. Format: functional. The conditions noted are these: time 18-20 hrs.
Data set [5] deals with Acinetobacter baumannii. Description: Antibacterial activity against OXA-23 producing multidrug-resistant Acinetobacter baumannii clinical isolate 15-2 assessed as inhibition of bacterial growth incubated for 18 to 20 hrs by two fold serial dilution assay. As to conditions: time 18-20 hrs. The format is functional.
Data set [6] relates to Acinetobacter baumannii. Description: Antibacterial activity against OXA-23 producing multidrug-resistant Acinetobacter baumannii clinical isolate 15-3 assessed as inhibition of bacterial growth incubated for 18 to 20 hrs by two fold serial dilution assay. As to conditions: time 18-20 hrs. Format: functional.
For data set [7], the system named is Acinetobacter baumannii. Description: Antibacterial activity against OXA-23 producing multidrug-resistant Acinetobacter baumannii clinical isolate 15-4 assessed as inhibition of bacterial growth incubated for 18 to 20 hrs by two fold serial dilution assay. Format: functional. The conditions noted are these: time 18-20 hrs.
Data set [8] deals with Acinetobacter baumannii. Description: Antibacterial activity against OXA-23 producing multidrug-resistant Acinetobacter baumannii clinical isolate 15-5 assessed as inhibition of bacterial growth incubated for 18 to 20 hrs by two fold serial dilution assay. The conditions noted are these: time 18-20 hrs. The format is functional.
The test system of data set [9] is Klebsiella pneumoniae. Description: Antibacterial activity against KPC-2 producing multidrug-resistant Klebsiella pneumoniae clinical isolate 15-1 assessed as inhibition of bacterial growth incubated for 18 to 20 hrs by two fold serial dilution assay. As to conditions: time 18-20 hrs. Format: functional.
Data set [10] deals with Klebsiella pneumoniae. Kind of data set: Antibacterial activity against KPC-2 producing multidrug-resistant Klebsiella pneumoniae clinical isolate 15-2 assessed as inhibition of bacterial growth incubated for 18 to 20 hrs by two fold serial dilution assay. The format is functional. As to conditions: time 18-20 hrs.
Data set [11] deals with Klebsiella pneumoniae. Kind of data set: Antibacterial activity against KPC-2 producing multidrug-resistant Klebsiella pneumoniae clinical isolate 15-5 assessed as inhibition of bacterial growth incubated for 18 to 20 hrs by two fold serial dilution assay. The conditions noted are these: time 18-20 hrs. Format: functional.
For data set [12], the system named is Escherichia coli. Description: Antibacterial activity against Escherichia coli ATCC35218 assessed as inhibition of bacterial growth incubated for 18 to 20 hrs by two fold serial dilution assay. Format: functional. As to conditions: time 18-20 hrs.
Data set [13] has as its system Pseudomonas aeruginosa. Description: Antibacterial activity against IMP-4 producing multidrug-resistant Pseudomonas aeruginosa clinical isolate 17-13 assessed as inhibition of bacterial growth incubated for 18 to 20 hrs by two fold serial dilution assay. The format is functional. As to conditions: time 18-20 hrs.
Data set [14] has as its system Pseudomonas aeruginosa. Description: Antibacterial activity against IMP-4 producing multidrug-resistant Pseudomonas aeruginosa clinical isolate 17-1 assessed as inhibition of bacterial growth incubated for 18 to 20 hrs by two fold serial dilution assay. The format is functional. The conditions noted are these: time 18-20 hrs.
Data set [15] deals with Pseudomonas aeruginosa. Kind of data set: Antibacterial activity against IMP-4 producing multidrug-resistant Pseudomonas aeruginosa clinical isolate 19-17 assessed as inhibition of bacterial growth incubated for 18 to 20 hrs by two fold serial dilution assay. The format is functional. As to conditions: time 18-20 hrs.
In data set [16] the test system is Klebsiella pneumoniae. Description: Antibacterial activity against KPC-2 producing multidrug-resistant Klebsiella pneumoniae clinical isolate 15-3 assessed as inhibition of bacterial growth incubated for 18 to 20 hrs by two fold serial dilution assay. The format is functional. As to conditions: time 18-20 hrs.
The nature of data set [17]: AUC (0 to infinity) in ICR mouse at 20 mg/kg,iv administration measured upto 6 hrs by LC-MS/MS analysis. Format: ADME, organism-based. The conditions noted are these: in vivo.
A short description of data set [18]: Clearance in ICR mouse at 20 mg/kg,iv administration measured upto 6 hrs by LC-MS/MS analysis. Format: ADME, organism-based. The conditions noted are these: in vivo.
The nature of data set [19]: Half life in ICR mouse at 20 mg/kg,iv administration measured upto 6 hrs by LC-MS/MS analysis. The format is ADME, organism-based. As to conditions: in vivo.
Data set [20] in a line: MRT in ICR mouse at 20 mg/kg,iv administration measured upto 6 hrs by LC-MS/MS analysis. Format: ADME, organism-based. As to conditions: in vivo.
Data set [21] can be described thus: Volume of distribution at steady state in ICR mouse at 20 mg/kg,iv administration measured upto 6 hrs by LC-MS/MS analysis. The format is ADME, organism-based. The conditions noted are these: in vivo, read-out: Vdss.
The test system of data set [22] is Acinetobacter baumannii. Kind of data set: Antibacterial activity against OXA-23 producing multidrug-resistant Acinetobacter baumannii clinical isolate 17-2 assessed as inhibition of bacterial growth incubated for 18 to 20 hrs by two fold serial dilution assay. Format: functional. As to conditions: time 18-20 hrs.
Data set [23] deals with Acinetobacter baumannii. Description: Antibacterial activity against OXA-23 producing multidrug-resistant Acinetobacter baumannii clinical isolate 17-3 assessed as inhibition of bacterial growth incubated for 18 to 20 hrs by two fold serial dilution assay. Format: functional. The conditions noted are these: time 18-20 hrs.
The subject of data set [24] is Pseudomonas aeruginosa. Kind of data set: Antibacterial activity against IMP-4 producing multidrug-resistant Pseudomonas aeruginosa clinical isolate 19-5 assessed as inhibition of bacterial growth incubated for 18 to 20 hrs by two fold serial dilution assay. Format: functional. The conditions noted are these: time 18-20 hrs.
The subject of data set [25] is Pseudomonas aeruginosa. Description: Antibacterial activity against IMP-4 producing multidrug-resistant Pseudomonas aeruginosa clinical isolate 19-1 assessed as inhibition of bacterial growth incubated for 18 to 20 hrs by two fold serial dilution assay. The conditions noted are these: time 18-20 hrs. The format is functional.

By MIC is commonly meant the lowest concentration that inhibits growth of the organism. Broadly, the AUC(0-inf) is total exposure, with the tail of the curve extrapolated. A lower AUC(0-inf) goes with low exposure. Usually clearance stands for a measure of how efficiently the substance is removed, as volume per time. Low readings indicate a low capacity for elimination, high ones a high capacity for elimination. A word on the half-life: it is the time needed for the level to fall by half in the phase considered. A high value points to slow loss. One may read the MRT as a mean duration of stay, worked out from the concentration-time curve. For `CC(C)(C)C1CCC(C(O/N=C(\C(=O)N[C@@H]2C(=O)N3C(C(=O)O)=C(CSCCNC(=O)c4ccc(O)c(O)c4Cl)CS[C@H]23)c2csc(N)n2)C(=O)O)CC1.O=C(O)C(F)(F)F` (stereo partly specified), the minimal inhibitory concentration (MIC) with Escherichia coli [1] was found to be 0.125 µg/mL; in the data set with Escherichia coli [2], 0.5 µg/mL; in the data set on Escherichia coli [3], 0.25 µg/mL; in the data set on Acinetobacter baumannii [4], 8 µg/mL; in the data set with Acinetobacter baumannii [5], 8 µg/mL; in the data set with Acinetobacter baumannii [6] it was 8 µg/mL. In addition, the minimum inhibitory concentration (MIC) was determined as 8 µg/mL with Acinetobacter baumannii [7]; 8 µg/mL with Acinetobacter baumannii [8]; 1 µg/mL in the data set on Klebsiella pneumoniae [9]; 1 µg/mL in the data set on Klebsiella pneumoniae [10]; 1 µg/mL in the data set with Klebsiella pneumoniae [11]; 0.06 µg/mL in the data set on Escherichia coli [12]. In addition, the minimum inhibitory concentration (MIC) with Pseudomonas aeruginosa [13] was 4 µg/mL; with Pseudomonas aeruginosa [14] it was 4 µg/mL; with Pseudomonas aeruginosa [15], 0.5 µg/mL; in the data set on Klebsiella pneumoniae [16], 2 µg/mL. In data set [17], the area under the curve AUC(0-inf) was found to be 6670 ng·h/mL. The clearance in data set [18] was determined as 58 mL/min/kg. Further, the half-life in [19] was 299 min. In [20], this molecule came in with a mean residence time (MRT) of 103 min. The Vd in data set [21] worked out at 7.23 L/kg.

As for `CC1CCC(C(O/N=C(\C(=O)N[C@@H]2C(=O)N3C(C(=O)O)=C(CSCCNC(=O)c4ccc(O)c(O)c4Cl)CS[C@H]23)c2csc(N)n2)C(=O)O)CC1.O=C(O)C(F)(F)F` (stereo partly specified), the minimum inhibitory concentration (MIC) in the data set on Escherichia coli [1] was determined as 0.5 µg/mL; with Escherichia coli [2], 0.5 µg/mL; with Escherichia coli [3], 0.125 µg/mL; in the data set on Acinetobacter baumannii [4], 4 µg/mL; in the data set on Acinetobacter baumannii [5], 8 µg/mL; in the data set with Acinetobacter baumannii [6], 4 µg/mL. Besides, the minimum inhibitory concentration (MIC) in the data set on Acinetobacter baumannii [7] is 4 µg/mL; in the data set on Acinetobacter baumannii [8], 8 µg/mL; with Klebsiella pneumoniae [9], 1 µg/mL; with Klebsiella pneumoniae [10] it was 0.5 µg/mL; with Klebsiella pneumoniae [11], 0.5 µg/mL; with Escherichia coli [12], not above 0.03 µg/mL. Besides, the minimal inhibitory concentration (MIC) in the data set with Pseudomonas aeruginosa [13] came out at 0.5 µg/mL; with Pseudomonas aeruginosa [15], 0.5 µg/mL; in the data set on Klebsiella pneumoniae [16], 1 µg/mL. The same molecule showed an area under the curve AUC(0-inf) in data set [17] of 5760 ng·h/mL. In data set [18], this molecule had a clearance of 60.3 mL/min/kg. The molecule also gave a half-life in data set [19] of 139 min. Further, in data set [20], the mean residence time MRT came to 35.4 min. In addition, the Vd in data set [21] stood at 2.37 L/kg.

On to `Nc1nc(/C(=N/OC(C(=O)O)C2CCCCC2)C(=O)N[C@@H]2C(=O)N3C(C(=O)O)=C(CSCCNC(=O)c4ccc(O)c(O)c4Cl)CS[C@H]23)c(Br)s1.O=C(O)C(F)(F)F` (stereo partly specified), for which the minimum inhibitory concentration (MIC) with Escherichia coli [1] is 1 µg/mL; in the data set on Escherichia coli [2], 0.5 µg/mL; in the data set on Escherichia coli [3], 0.25 µg/mL; in the data set with Acinetobacter baumannii [4], 2 µg/mL; in the data set on Acinetobacter baumannii [5], 1 µg/mL; in the data set with Acinetobacter baumannii [6], 2 µg/mL. For the same molecule, the MIC in the data set on Acinetobacter baumannii [7] came to 2 µg/mL; in the data set with Acinetobacter baumannii [8] it was 1 µg/mL; in the data set on Klebsiella pneumoniae [9], 2 µg/mL; with Klebsiella pneumoniae [10] it was 2 µg/mL; in the data set with Klebsiella pneumoniae [11], 1 µg/mL; in the data set with Escherichia coli [12] it was 0.06 µg/mL. The MIC in the data set with Pseudomonas aeruginosa [13] was determined as 0.25 µg/mL; in the data set on Pseudomonas aeruginosa [15], 0.5 µg/mL; with Acinetobacter baumannii [22], 1 µg/mL; with Acinetobacter baumannii [23], 1 µg/mL; in the data set with Pseudomonas aeruginosa [24], 1 µg/mL; in the data set on Pseudomonas aeruginosa [25], 4 µg/mL. For the same molecule, the MIC with Klebsiella pneumoniae [16] was found to be 8 µg/mL.

In the case of `Nc1nc(/C(=N/OC(C(=O)O)C2CCCCC2)C(=O)N[C@@H]2C(=O)N3C(C(=O)O)=C(CSCCNC(=O)c4ccc(O)c(O)c4Cl)CS[C@H]23)cs1.O=C(O)C(F)(F)F` (stereo partly specified), the MIC is 0.125 µg/mL in the data set on Escherichia coli [1]; 1 µg/mL with Escherichia coli [2]; 0.125 µg/mL with Escherichia coli [3]; 8 µg/mL in the data set on Acinetobacter baumannii [4]; 4 µg/mL in the data set on Acinetobacter baumannii [5]; 8 µg/mL in the data set on Acinetobacter baumannii [6]. Further, the minimum inhibitory concentration (MIC) with Acinetobacter baumannii [7] is 8 µg/mL; with Acinetobacter baumannii [8], 4 µg/mL; in the data set on Klebsiella pneumoniae [9] it was 4 µg/mL; in the data set on Klebsiella pneumoniae [10] it was 2 µg/mL; in the data set on Klebsiella pneumoniae [11], 1 µg/mL; with Escherichia coli [12] it was 0.125 µg/mL. Moreover, the minimal inhibitory concentration (MIC) in the data set with Pseudomonas aeruginosa [13] was 1 µg/mL; with Pseudomonas aeruginosa [14], 4 µg/mL; in the data set with Pseudomonas aeruginosa [15] it was 0.5 µg/mL; in the data set with Klebsiella pneumoniae [16], 2 µg/mL. In [17], this molecule gave a total exposure AUC(0-inf) of 3440 ng·h/mL. Besides, the clearance in data set [18] was determined as 90.1 mL/min/kg. For the same molecule, the half-life in data set [19] is 42 min. For the same molecule, the mean residence time MRT in data set [20] was 18 min. Also, the Vd in data set [21] came to 1.73 L/kg.

Turning to `Cc1ccc(S(=O)(=O)O)cc1.Nc1nc(/C(=N/OC(C(=O)O)C2CCC(F)(F)CC2)C(=O)N[C@@H]2C(=O)N3C(C(=O)O)=C(CSCCNC(=O)c4ccc(O)c(O)c4Cl)CS[C@H]23)cs1` (stereo partly specified), the area under the curve AUC(0-inf) in data set [17] turned out to be 11600 ng·h/mL. Besides, the clearance in [18] is 31.3 mL/min/kg. The molecule further gave a half-life in data set [19] of 45 min. The molecule also came in with an MRT in [20] of 12 min. Also, the Vd in data set [21] was determined as 0.402 L/kg.

These data come from ChEMBL document CHEMBL5543142, “Discovery of YFJ-36: Design, Synthesis, and Antibacterial Activities of Catechol-Conjugated β-Lactams against Gram-Negative Bacteria” (J Med Chem, 2024).
